For one assay, the target named is D(3) dopamine receptor (Homo sapiens, UniProt P35462). The experiment in a line: GPCRScan assay: inhibition of D3. Also on record: radioligand conc. used [nm] 0.5 – 1.8, parental cells HEKT.
In a further assay the target is D(4) dopamine receptor (Homo sapiens, UniProt P21917). As to the kind of experiment: GPCRScan assay: inhibition of D4. Also on record: radioligand conc. used [nm] 0.6 – 1.7, parental cells Stable HEK.
The target in assay [1] is Sodium-dependent dopamine transporter (Homo sapiens, UniProt Q01959). The experiment in a line: GPCRScan assay: inhibition of DAT. Also on record: radioligand conc. used [nm] 3.6 – 16.0, parental cells stable HEK.
Sodium-dependent dopamine transporter, sequence (Q01959 whole entry): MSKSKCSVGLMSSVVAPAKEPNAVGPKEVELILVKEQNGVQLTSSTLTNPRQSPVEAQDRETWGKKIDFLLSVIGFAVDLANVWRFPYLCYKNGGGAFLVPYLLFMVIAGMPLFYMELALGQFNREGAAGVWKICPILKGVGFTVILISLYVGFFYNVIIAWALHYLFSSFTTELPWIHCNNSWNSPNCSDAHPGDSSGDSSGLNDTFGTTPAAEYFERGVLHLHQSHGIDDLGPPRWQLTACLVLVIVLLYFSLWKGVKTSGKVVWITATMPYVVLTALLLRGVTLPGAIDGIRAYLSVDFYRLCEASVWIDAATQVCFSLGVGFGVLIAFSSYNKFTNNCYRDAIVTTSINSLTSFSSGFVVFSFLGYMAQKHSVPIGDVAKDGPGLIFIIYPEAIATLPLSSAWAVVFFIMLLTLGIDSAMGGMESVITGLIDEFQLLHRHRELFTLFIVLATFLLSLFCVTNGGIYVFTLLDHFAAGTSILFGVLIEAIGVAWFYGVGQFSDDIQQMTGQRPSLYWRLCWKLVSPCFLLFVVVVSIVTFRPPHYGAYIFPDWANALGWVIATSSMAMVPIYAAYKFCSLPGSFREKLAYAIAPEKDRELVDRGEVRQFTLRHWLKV
The target of assay [2] is Beta-2 adrenergic receptor (Homo sapiens, UniProt P07550). As to the kind of experiment: GPCRScan assay: inhibition of Beta2. Also on record: radioligand conc. used [nm] 0.5 - 1.0, parental cells HEK Flp-In.
Beta-2 adrenergic receptor, sequence (P07550 whole entry): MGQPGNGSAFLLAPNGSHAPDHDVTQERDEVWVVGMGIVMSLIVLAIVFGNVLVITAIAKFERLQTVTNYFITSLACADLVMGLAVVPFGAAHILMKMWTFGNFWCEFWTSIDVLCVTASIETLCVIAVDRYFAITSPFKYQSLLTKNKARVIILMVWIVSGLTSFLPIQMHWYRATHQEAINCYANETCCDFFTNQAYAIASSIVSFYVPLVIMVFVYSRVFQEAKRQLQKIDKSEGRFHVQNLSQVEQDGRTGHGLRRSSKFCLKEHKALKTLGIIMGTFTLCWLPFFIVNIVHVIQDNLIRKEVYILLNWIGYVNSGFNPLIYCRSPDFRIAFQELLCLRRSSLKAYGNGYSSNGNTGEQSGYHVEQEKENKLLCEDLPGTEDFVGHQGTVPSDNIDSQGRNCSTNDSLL
For assay [3], the target named is Alpha-1D adrenergic receptor (Homo sapiens, UniProt P25100). As to the kind of experiment: GPCRScan assay: inhibition of Alpha1D. Also on record: radioligand conc. used [nm] 0.3 – 1.0, parental cells stable.
Assay [4] deals with Prostaglandin G/H synthase 2 (Homo sapiens) (UniProt P35354). As to the kind of experiment: Inhibition of Cyclooxygenase COX-2 at compound concentration of 10.0 uM in the Eurofins-Panlabs enzyme assay (Eurofins_assay_118010). Also on record: substrate with concentration 0.3 uM Arachidonic acid, incubation time 15 min, incubation temperature 37 C. The conditions noted are these: Compound concentration 10.0 uM.
Prostaglandin G/H synthase 2 (Homo sapiens), sequence (P35354 whole entry): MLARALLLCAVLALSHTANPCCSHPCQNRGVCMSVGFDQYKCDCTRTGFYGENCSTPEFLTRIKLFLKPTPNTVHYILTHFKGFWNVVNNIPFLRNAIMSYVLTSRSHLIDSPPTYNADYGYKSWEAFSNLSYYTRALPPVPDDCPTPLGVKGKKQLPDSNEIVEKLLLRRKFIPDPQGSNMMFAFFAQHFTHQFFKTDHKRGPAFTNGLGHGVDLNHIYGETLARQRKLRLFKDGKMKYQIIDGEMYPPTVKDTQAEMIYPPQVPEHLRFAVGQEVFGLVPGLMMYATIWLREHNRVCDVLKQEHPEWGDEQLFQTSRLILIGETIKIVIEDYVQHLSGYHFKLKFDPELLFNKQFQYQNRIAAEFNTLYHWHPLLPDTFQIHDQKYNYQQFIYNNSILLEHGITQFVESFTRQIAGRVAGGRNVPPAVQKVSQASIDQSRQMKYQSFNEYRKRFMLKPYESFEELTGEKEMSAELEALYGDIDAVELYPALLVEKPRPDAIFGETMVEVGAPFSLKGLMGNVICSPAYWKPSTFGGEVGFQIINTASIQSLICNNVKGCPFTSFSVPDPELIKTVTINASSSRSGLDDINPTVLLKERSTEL

Assay [5] has as its target Phosphodiesterase 3 (Homo sapiens) (UniProt Q14432+Q13370). The experiment in a line: Inhibition of Phosphodiesterase PDE3 at compound concentration of 10.0 uM in the Eurofins-Panlabs enzyme assay (Eurofins_assay_152000). The assay is classed as protein assay. Also on record: substrate with concentration 1.01 uM [3H] cAMP + cAMP, incubation time 20 min, incubation temperature 25 C. The conditions noted are these: Compound concentration 10.0 uM.

The species entered for assay [6] is Homo sapiens. As to the kind of experiment: Inhibition of Phosphodiesterase PDE4 at compound concentration of 10.0 uM in the Eurofins-Panlabs enzyme assay (Eurofins_assay_154000). The assay is classed as protein assay. Also on record: substrate with concentration 1.01 uM [3 H]cAMP + cAMP, incubation time 20 min, incubation temperature 25 C. Conditions: Compound concentration 10.0 uM; call rule not given here.

The target in assay [7] is Mitogen-activated protein kinase 3 (Homo sapiens) (UniProt P27361). The experiment in a line: Inhibition of Protein Serine/Threonine Kinase, MAPK3 (ERK1) at 10 µM in the Eurofins-Panlabs enzyme assay (Eurofins_assay_171000). The conditions noted are these: Compound concentration 10.0 uM.
Assay [8] deals with Cathepsin G (Homo sapiens) (UniProt P08311). As to the kind of experiment: Inhibition of Peptidase, CTSG (Cathepsin G) at 10 µM in the Eurofins-Panlabs enzyme assay (Eurofins_assay_112510). Also on record: substrate with concentration. The conditions noted are these: Compound concentration 10.0 uM.
Cathepsin G (Homo sapiens), sequence (P08311 whole entry): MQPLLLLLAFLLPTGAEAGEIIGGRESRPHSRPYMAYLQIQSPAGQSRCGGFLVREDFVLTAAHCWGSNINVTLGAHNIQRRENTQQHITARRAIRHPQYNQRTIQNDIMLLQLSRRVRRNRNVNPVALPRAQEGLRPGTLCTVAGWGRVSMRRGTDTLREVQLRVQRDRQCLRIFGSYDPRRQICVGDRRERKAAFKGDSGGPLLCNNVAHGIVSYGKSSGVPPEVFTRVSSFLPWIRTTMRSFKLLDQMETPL
For assay [9], the species on record is Bos taurus. The experiment in a line: Protein Serine/Threonine Kinase, PKA, Non-Selective Eurofins-Panlabs enzyme assay. The assay is classed as protein-complex assay. Also on record: substrate with concentration 370 µg/mL Histone Type III-S, incubation time 15 min, incubation temperature 25 °C. The conditions noted are these: Compound concentration 10.0 uM.

Assay [10] addresses Neprilysin (Homo sapiens) (UniProt P08473). The experiment in a line: Peptidase, Metalloproteinase, Neutral Endopeptidase Eurofins-Panlabs enzyme assay. The conditions noted are these: Compound concentration 10.0 uM.
The species named for assay [11] is Bos taurus. As to the kind of experiment: Phosphodiesterase PDE6 Eurofins-Panlabs enzyme assay. Also on record: substrate with concentration [3H] cGMP + cGMP, incubation time 20 min, incubation temperature 25 °C. The conditions noted are these: Compound concentration 10.0 uM.
The species named for assay [12] is Homo sapiens. As to the kind of experiment: Protein Serine/Threonine Kinase, MAPK14 (p38α) Eurofins-Panlabs enzyme assay. Also on record: substrate with concentration 10 µg/mL Myelin Basic Protein (MBP), incubation time 60 min, incubation temperature 25 °C. The conditions noted are these: Compound concentration 10.0 uM.
Assay [13] addresses Sodium-dependent serotonin transporter (Homo sapiens) (UniProt P31645). The experiment in a line: Transporter, Serotonin (5- Hydroxytryptamine) (SERT) Eurofins-Panlabs radioligand binding assay. Also on record: ligand concentration 0.15 nM, non-specific ligand with concentration 10 µM Imipramine, incubation time 3 h, incubation temperature 4 °C. The conditions noted are these: Compound concentration 10.0 uM.

Assay [14] deals with Cannabinoid receptor 1 (Homo sapiens) (UniProt P21554). As to the kind of experiment: Inhibition of Cannabinoid CB1 at compound concentration of 10.0 uM in the Eurofins-Panlabs radioligand binding assay (Eurofins_assay_217050). Also on record: ligand concentration 2 nM. Conditions: Compound concentration 10.0 uM.
Cannabinoid receptor 1 (Homo sapiens), sequence (P21554 whole entry): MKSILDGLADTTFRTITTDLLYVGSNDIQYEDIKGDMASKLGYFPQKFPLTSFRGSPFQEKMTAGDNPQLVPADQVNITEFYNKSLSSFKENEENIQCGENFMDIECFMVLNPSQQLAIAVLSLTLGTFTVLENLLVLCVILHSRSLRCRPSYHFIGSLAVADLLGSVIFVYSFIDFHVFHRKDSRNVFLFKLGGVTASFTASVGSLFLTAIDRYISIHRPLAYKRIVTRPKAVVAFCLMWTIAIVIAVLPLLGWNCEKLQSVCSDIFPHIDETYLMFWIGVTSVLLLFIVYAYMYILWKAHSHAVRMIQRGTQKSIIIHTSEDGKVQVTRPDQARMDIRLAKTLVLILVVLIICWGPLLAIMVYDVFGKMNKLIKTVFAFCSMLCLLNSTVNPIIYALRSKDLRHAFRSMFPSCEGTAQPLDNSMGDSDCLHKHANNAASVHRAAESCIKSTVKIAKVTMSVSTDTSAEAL
For assay [15], the species on record is Rattus norvegicus. The experiment in a line: ATPase, Ca2+ Eurofins-Panlabs enzyme assay. Conditions: Compound concentration 10.0 uM.
The target of assay [16] is Carbonic anhydrase (Homo sapiens) (UniProt P00918+P43166+P00915+P07451+P23280+O43570+Q9ULX7+Q16790+P22748+Q8N1Q1+Q9Y2D0+P35218). The experiment in a line: Carbonic Anhydrase Eurofins-Panlabs enzyme assay. The assay is classed as protein assay. The conditions noted are these: Compound concentration 10.0 uM.
Assay [17] has as its target 3-hydroxy-3-methylglutaryl-coenzyme A reductase (Homo sapiens) (UniProt P04035). The experiment in a line: HMG-CoA Reductase Eurofins-Panlabs enzyme assay. Conditions: Rattus norvegicus; Compound concentration 10.0 uM.
The target of assay [18] is Coagulation factor X (Homo sapiens) (UniProt P00742). The experiment in a line: Peptidase, Factor Xa Eurofins-Panlabs enzyme assay. Also on record: substrate with concentration. The conditions noted are these: Compound concentration 10.0 uM.
Assay [19] deals with Matrix metalloproteinase-14 (Homo sapiens) (UniProt P50281). As to the kind of experiment: Peptidase, Matrix Metalloproteinase-14 (MMP-14) Eurofins-Panlabs enzyme assay. Conditions: Compound concentration 10.0 uM. Also on record: substrate with concentration.
In assay [20] the target is Prothrombin (Homo sapiens) (UniProt P00734). The experiment in a line: Peptidase, Thrombin Eurofins-Panlabs enzyme assay. Also on record: substrate with concentration. Conditions: Compound concentration 10.0 uM.
Assay [21] concerns the target Ca2+/calmodulin-dependent protein kinase II (CaM kinase II) (Rattus norvegicus) (UniProt P11275+P08413+P15791+P11730). The experiment in a line: Protein Serine/Threonine Kinase, Ca2+/Calmodulin-Dep.II Eurofins-Panlabs enzyme assay. The conditions noted are these: Compound concentration 10.0 uM.
For assay [22], the target named is Glycogen synthase kinase-3 beta (Homo sapiens) (UniProt P49841). As to the kind of experiment: Protein Serine/Threonine Kinase, GSK-3β Eurofins-Panlabs enzyme assay. Conditions: Compound concentration 10.0 uM. Also on record: substrate with concentration.
Assay [23] addresses Receptor tyrosine-protein kinase erbB-2 (Homo sapiens) (UniProt P04626). As to the kind of experiment: Protein Tyrosine Kinase, ERBB2 (HER2) Eurofins-Panlabs enzyme assay. Conditions: Compound concentration 10.0 uM.
Assay [24] has as its target Thromboxane-A synthase (Homo sapiens) (UniProt P24557). The experiment in a line: Thromboxane Synthase Eurofins-Panlabs enzyme assay. Conditions: Compound concentration 10.0 uM.
Assay [25] deals with Neuromedin-K receptor (Homo sapiens) (UniProt P29371). As to the kind of experiment: Tachykinin NK3 Eurofins-Panlabs radioligand binding assay. The conditions noted are these: Compound concentration 10.0 uM.
Neuromedin-K receptor (Homo sapiens), sequence (P29371 whole entry): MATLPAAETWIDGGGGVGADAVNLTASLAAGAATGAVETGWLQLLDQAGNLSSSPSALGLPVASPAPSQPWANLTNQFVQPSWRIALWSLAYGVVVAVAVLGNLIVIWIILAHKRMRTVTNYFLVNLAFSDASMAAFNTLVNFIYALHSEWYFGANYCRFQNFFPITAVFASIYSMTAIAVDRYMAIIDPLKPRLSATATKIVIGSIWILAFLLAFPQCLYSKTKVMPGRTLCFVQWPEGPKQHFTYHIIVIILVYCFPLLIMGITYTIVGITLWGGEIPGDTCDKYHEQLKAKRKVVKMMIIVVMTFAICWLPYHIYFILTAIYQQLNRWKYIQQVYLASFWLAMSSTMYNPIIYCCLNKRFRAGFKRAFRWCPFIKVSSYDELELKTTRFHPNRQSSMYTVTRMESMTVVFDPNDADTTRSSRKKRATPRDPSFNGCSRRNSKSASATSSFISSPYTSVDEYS
For assay [26], the target named is 5-hydroxytryptamine receptor 2A (Homo sapiens) (UniProt P28223). Conditions: Compound concentration 10.0 uM.
Assay [27] addresses 5-hydroxytryptamine receptor 2C (Homo sapiens) (UniProt P28335). The conditions noted are these: Compound concentration 10.0 uM.
Assay [28] deals with 5-hydroxytryptamine receptor 6 (Homo sapiens) (UniProt P50406). Conditions: Compound concentration 10.0 uM.
Assay [29] concerns the target Alpha-1B adrenergic receptor (Homo sapiens) (UniProt P35368). Conditions: Compound concentration 10.0 uM.
The species entered for assay [30] is Rattus norvegicus. The conditions noted are these: Compound concentration 10.0 uM.
The target of assay [31] is Alpha-1D adrenergic receptor (Homo sapiens) (UniProt P25100). The conditions noted are these: Compound concentration 10.0 uM.
Assay [32] deals with cGMP-specific 3',5'-cyclic phosphodiesterase (Homo sapiens) (UniProt O76074). Conditions: Compound concentration 10.0 uM.
A short description of assay [33]: GPCRScan assay: inhibition of GABA/PBR. Also on record: species or system Rattus norvegicus; radioligand conc. used [nm] 0.3 – 2.0, parental cells brain tissue.
For assay [34], the species on record is Homo sapiens. The experiment in a line: Inhibition of Nicotinic Acetylcholine at compound concentration of 10.0 uM in the Eurofins-Panlabs radioligand binding assay (Eurofins_assay_258590). The assay is classed as protein-complex assay. The conditions noted are these: Compound concentration 10.0 uM.
Assay [35] is filed under the species Homo sapiens. As to the kind of experiment: Cholecystokinin CCK2 (CCKB) Eurofins-Panlabs radioligand binding assay. Also on record: ligand concentration 0.072 nM, non-specific ligand with concentration 1 µM Sincalide, incubation time 3 h, incubation temperature 25 °C. The conditions noted are these: Compound concentration 10.0 uM.
Assay [36] has as its target T1, Free fatty acid receptor 1 (Homo sapiens, UniProt O14842). The experiment in a line: FFAR1 binding assay.
Assay [37] concerns the target T1, Free fatty acid receptor 1. The experiment in a line: FLIPR functional assay (Ca influx activity of CHO cells).
In assay [38] the target is C5a anaphylatoxin chemotactic receptor 1 (Homo sapiens) (UniProt P21730). The experiment in a line: Anaphylatoxin C5a Eurofins-Panlabs radioligand binding assay. Conditions: Compound concentration 10.0 uM.
C5a anaphylatoxin chemotactic receptor 1 (Homo sapiens), sequence (P21730 whole entry): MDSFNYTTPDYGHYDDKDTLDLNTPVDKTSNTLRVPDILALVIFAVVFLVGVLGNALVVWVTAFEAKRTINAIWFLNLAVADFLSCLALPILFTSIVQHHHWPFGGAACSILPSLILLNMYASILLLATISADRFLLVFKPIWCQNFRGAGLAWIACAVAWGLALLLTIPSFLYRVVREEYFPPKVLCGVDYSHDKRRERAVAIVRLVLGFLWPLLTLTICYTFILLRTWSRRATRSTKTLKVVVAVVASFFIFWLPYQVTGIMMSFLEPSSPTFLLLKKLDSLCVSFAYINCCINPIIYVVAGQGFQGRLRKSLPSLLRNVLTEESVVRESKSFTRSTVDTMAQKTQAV
Assay [39] addresses GABA-A receptor; anion channel (Rattus norvegicus) (UniProt O09028+P15431+P18506+P18508+P19969+P20236+P23574+P23576+P28471+P28473+P30191+P62813+P63079+P63138+Q91ZM7+Q9ES14). Conditions: Compound concentration 10.0 uM.

These results are taken from ChEMBL document CHEMBL5058642, “Data for DCP probe TP-051” (2022).

T1 sequence (O14842 whole entry): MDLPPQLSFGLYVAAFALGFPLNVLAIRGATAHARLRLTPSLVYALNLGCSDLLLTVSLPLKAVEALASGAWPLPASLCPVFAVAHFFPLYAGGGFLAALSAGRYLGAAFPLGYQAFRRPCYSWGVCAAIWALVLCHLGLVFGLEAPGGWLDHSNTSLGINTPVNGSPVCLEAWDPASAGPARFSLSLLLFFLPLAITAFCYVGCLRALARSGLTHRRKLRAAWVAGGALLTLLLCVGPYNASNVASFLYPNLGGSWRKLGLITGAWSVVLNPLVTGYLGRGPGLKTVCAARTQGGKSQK
Thromboxane-A synthase (Homo sapiens), sequence (P24557 whole entry): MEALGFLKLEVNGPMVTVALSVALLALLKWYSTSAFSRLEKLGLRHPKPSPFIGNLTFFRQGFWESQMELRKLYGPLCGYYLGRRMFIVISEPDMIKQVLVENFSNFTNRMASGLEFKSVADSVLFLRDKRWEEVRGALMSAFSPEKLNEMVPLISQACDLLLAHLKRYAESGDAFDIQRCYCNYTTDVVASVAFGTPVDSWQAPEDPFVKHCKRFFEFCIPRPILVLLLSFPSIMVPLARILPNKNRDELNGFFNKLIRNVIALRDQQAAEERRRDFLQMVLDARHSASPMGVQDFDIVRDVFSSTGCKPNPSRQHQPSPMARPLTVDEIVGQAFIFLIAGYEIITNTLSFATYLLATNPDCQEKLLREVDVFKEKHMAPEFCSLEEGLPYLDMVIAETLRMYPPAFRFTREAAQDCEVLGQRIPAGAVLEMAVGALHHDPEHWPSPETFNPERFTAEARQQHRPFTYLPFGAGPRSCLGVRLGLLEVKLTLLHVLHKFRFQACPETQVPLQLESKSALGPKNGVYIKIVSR
D(4) dopamine receptor, sequence (P21917 whole entry): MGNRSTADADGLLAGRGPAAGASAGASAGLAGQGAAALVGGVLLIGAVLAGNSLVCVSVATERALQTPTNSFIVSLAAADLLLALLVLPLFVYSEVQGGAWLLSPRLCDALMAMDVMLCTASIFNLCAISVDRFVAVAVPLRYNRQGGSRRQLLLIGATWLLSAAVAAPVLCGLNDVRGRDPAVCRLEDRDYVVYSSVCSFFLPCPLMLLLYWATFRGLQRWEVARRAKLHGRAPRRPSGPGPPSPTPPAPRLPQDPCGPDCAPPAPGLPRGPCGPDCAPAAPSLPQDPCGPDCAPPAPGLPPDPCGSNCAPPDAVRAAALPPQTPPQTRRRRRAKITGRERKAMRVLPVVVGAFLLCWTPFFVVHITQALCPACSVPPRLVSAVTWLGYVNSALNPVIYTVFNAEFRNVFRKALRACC
Alpha-1B adrenergic receptor (Homo sapiens), sequence (P35368 whole entry): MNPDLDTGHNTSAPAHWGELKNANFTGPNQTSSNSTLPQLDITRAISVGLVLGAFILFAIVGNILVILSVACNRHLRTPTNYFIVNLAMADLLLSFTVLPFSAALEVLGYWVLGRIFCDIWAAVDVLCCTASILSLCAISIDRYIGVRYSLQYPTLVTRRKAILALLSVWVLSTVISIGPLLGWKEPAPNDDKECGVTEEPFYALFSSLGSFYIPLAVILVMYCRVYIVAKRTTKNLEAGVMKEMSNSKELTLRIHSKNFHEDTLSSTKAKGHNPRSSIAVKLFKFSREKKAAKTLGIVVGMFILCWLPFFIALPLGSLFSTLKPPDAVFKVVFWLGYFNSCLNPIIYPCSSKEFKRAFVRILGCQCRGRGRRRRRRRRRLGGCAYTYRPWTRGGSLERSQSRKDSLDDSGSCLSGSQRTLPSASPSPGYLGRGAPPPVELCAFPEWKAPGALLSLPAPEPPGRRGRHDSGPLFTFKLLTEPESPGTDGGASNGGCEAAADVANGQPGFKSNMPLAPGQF

In general, Ki refers to a dissociation constant, usually derived from enzyme kinetics or from competition with a known ligand. As a reminder, the pKi is −log10 of the Ki, conventionally taken in molar units. One may read the inhibition as the drop in the measured response relative to a control, in per cent. Turning to `Cc1cc(OC2CCS(=O)(=O)CC2)cc(C)c1-c1cccc(COc2ccc(CCC(=O)O)c(F)c2)c1`, the Ki on D(3) dopamine receptor is 0.925 µM; at D(4) dopamine receptor, 1.23 µM; in assay [1], over 10 µM; in assay [2], over 10 µM; in assay [3] it was 7.52 µM. Also, the pKi in assay [1] and in [2] was under 5 each time. In addition, the inhibition in [4] was -5%; in assay [5], 3%; in the assay filed under Homo sapiens [6] it was 26%; in assay [7], 30%; in assay [8], 20%; in the assay listed under Bos taurus [9], 5%. Further, the inhibition was 4% in assay [10]; 20% in the assay filed under Bos taurus [11]; 60% in the assay filed under Homo sapiens [12]; -5% in assay [13]; 8% in assay [14]; -1% in the assay filed under Rattus norvegicus [15]. For the same compound, the inhibition in assay [16] is 27%; in assay [17] it was -5%; in assay [18], 2%; in assay [19] it was 3%; in [20], -1%; in [21] it was 44%. Further, the inhibition in assay [22] was 19%; in [23], -9%; in assay [24], 64%; in [25], 30%; in [26], 7.36%; in assay [27], 14.1%. Besides, the inhibition in assay [28] was -7.86%; in [29], 0.86%; in the assay listed under Rattus norvegicus [30], -0.04%; in assay [31] it was 50.8%; in [32], -6%.

The term EC50 denotes the concentration needed to bring the measured effect to its halfway point. Lower therefore signals an effect from little substance. On to `Cc1cc(OC2CCS(=O)(=O)CC2)cc(C)c1-c1cccc(COc2ccc(C(=O)O)c(F)c2)c1`, for which the Ki in [33] is 2.75 µM; in assay [36] it was > 10 µM (not active). In addition, the pKi in [33] was 5.56. Besides, the inhibition in the assay filed under Homo sapiens [34] was -5%; in the assay listed under Homo sapiens [35], 5%; in [38], -1%; in [39] it was -1%. In addition, the EC50 in assay [37] is given as > 10 µM (not active).
